In Sander's compilation of Henry's law constants (doi:10.1021/je00012a017):

Tests used:
Conditions in all cases: reference: Hansen et al. (1993)
[1] = Henry solubility constant Hcp at 298.15 K (mol/(m3 Pa))
[2] = Henry solubility constant Hcp at 301 K (mol/(m3 Pa))
[3] = Henry solubility constant Hcp at 302 K (mol/(m3 Pa))

Row | SMILES | Henry solubility constant Hcp [1] | also measured
1 | C1CCCCC1 [cyclohexane] |  | Henry solubility constant Hcp at 301 K [2]: 6e-05
2 | ClC(Cl)(Cl)Cl [tetrachloromethane] | 0.00033 | 
3 | Cc1ccc(C)cc1 [1,4-dimethylbenzene] | 0.0012 | 
4 | CC(Cl)(Cl)Cl [1,1,1-trichloroethane] | 0.00059 | 
5 | Brc1ccccc1 [bromobenzene] | 0.0053 | 
6 | ClCC(Cl)Cl [1,1,2-trichloroethane] | 0.012 | 
7 | Cc1ccc2ccccc2c1 [2-methylnaphthalene] | 5e-05 | 
8 | c1ccccc1 [benzene] |  | Henry solubility constant Hcp at 302 K [3]: 0.0015
9 | Cc1ccccc1 [methylbenzene] |  | Henry solubility constant Hcp at 302 K [3]: 0.0014

Further lines, with some results ahead:

Row | Henry solubility constant Hcp [1] | SMILES | also measured
10 | 0.00087 | CC(C)c1ccccc1 [(2-propyl)-benzene] | 
11 | 6.5e-05 | C1CCCC1 [cyclopentane] | 
12 | 3e-05 | CCCCCCCC [octane] | 
13 | 0.0015 | Cc1ccc(C)c(C)c1 [1,2,4-trimethylbenzene] | 
14 | 1.2e-05 | CCCCCCC [heptane] | 
15 | 9.6e-05 | CC1CCCCC1 [methylcyclohexane] | 
16 | 1.9e-05 | CCCCC(C)C [2-methylhexane] | 
